Laboratory results: patent US8101761B2, “(E)-N-{3-[1-(8-fluoro-11H-10-OXA-1-AZA-dibenzo [A,D] cyclohepten-5ylidene)-propyl]-phenyl}-methanesulfonamide as glucocorticoid receptor modulator for the treatment of rheumatoid arthritis” (Eli Lilly and Company, priority 2008, dated 2012)
Where two headings read alike, the source gives them in different places.

System: carrageenan-induced paw edema in male Sprague-Dawley rats
Assay: Carrageenan-induced paw edema (CPE) model
Type: in vivo
Conditions: rat, oral gavage 2 h before carrageenan, paws taken 3 h after, mean of 5 determinations
Source text: Carrageenans are a group of polysaccharides which can induce an acute inflammatory response in animals. Cardinal signs of inflammation including edema, hyperalgesia and erythema are developed in the injection site immediately following injection. The CPE model is a recognized model of inflammation and can be used to evaluate the anti-inflammatory effects of glucocorticoid receptor ligands.
To evaluate the anti-inflammatory effects of Compound (I), the compound is formulated in a vehicle comprising 0.5% carboxymethyl cellulose and 0.25% Tween 80 then administered orally via gavage to male Sprague-Dawley rats (180-200 g). For comparison, prednisolone may be administered orally in the same vehicle. Two hours later, 1% carrageenan in 50 μl of 0.9% pyrogen free saline is injected into the subplantar regions of the right hind paw. Rats are euthanized by CO2 at 3 hours after the carrageenan injection. Paws are removed then weighed using a microbalance. Paws are then dissected by making several cuts on the paw surface and immediately immersing into liquid nitrogen until frozen. Frozen paws are then centrifuged to extract the exudates. Exudate levels of IL-1β, a cytokine generated during the inflammatory response is then measured by ELISA according to manufacturers instructions. Total paw protein is also measured using a protein assay kit and the absolute level of IL-1β is normalized to yield a concentration value of ng IL-1β/mg total protein.

C[C@]12C=CC(=O)C=C1CC[C@@H]1[C@@H]2[C@@H](O)C[C@@]2(C)[C@H]1CC[C@]2(O)C(=O)CO [prednisolone, reference compound]
ED50 (read-out: ED50, inhibition of carrageenan induced paw weight gain): ~6.6 mg/kg
ED50 (read-out: ED50, reduction of paw exudate levels of IL-1β): < 1 mg/kg
